The text below walks through data of paper PMC5663395, “Chemical Validation of Methionyl-tRNA Synthetase as a Druggable Target in Leishmania donovani” (ACS Infectious Diseases, 2017).

Assay [1] deals with LdMetRS (Leishmania donovani, UniProt A0A3Q8IBX2). Put plainly: LdMetRS biochemical enzyme assay (BIOMOL Green). Conditions: read-out: LdMetRS IC50. The protocol: LdMetRS Assay Development and Kinetic Parameter Determinations
Activity of the LdMetRS enzyme was determined by monitoring levels of pyrophosphate released during the first step of the enzymatic reaction. The pyrophosphate formed was converted to two inorganic phosphate molecules using a pyrophosphatase enzyme and levels of the resulting phosphate molecules measured using the BIOMOL® Green reagent (Enzo Life Sciences) 2.
Following optimization of the assay buffer and determination of the enzyme linearity, 384-well plate based assays were carried out at room temperature in a 50 μl reaction volume containing 30 mM Tris, pH 8.0, 140 mM NaCl, 30 mM KCl, 40 mM MgCl2, 0.01% (v/v) Brij-35, 1 mM DTT, 1 U/ml pyrophosphatase, 50 nM recombinant LdMetRS, and varying concentrations of substrates. Michaelis constants for the ATP and methionine substrates were determined in an end point assay using the above buffer and enzyme conditions. Data were fitted to the modified Michaelis-Menten equations […]
Equation 1 (Hill equation): […]
Equation 2 (High substrate inhibition Michaelis-Menten equation): […]
LdMetRS Inhibitor Studies
All test compounds were solubilized in 100% DMSO to a concentration of 10 mM. To generate IC50 data for the compounds, assay ready plates containing 10-point inhibitor curves (half-log serial dilutions) were prepared using an Echo® 550 (Labcyte).
Following preparation of the inhibitor curves, assays were carried out at room temperature in clear, flat bottom, polystyrene, 384-well plates (Greiner). Each assay was performed in a 50 μl reaction volume containing 30 mM Tris; pH 8.0, 140 mM NaCl, 30 mM KCl, 40 mM MgCl2, 0.01% (v/v) Brij-35, 1 mM DTT, 1 U/ml pyrophosphatase, 50 nM recombinant LdMetRS, 50 µM methionine and 100 µM […]
Assays were performed by adding 25 μl buffer with enzyme to assay plates (with buffer only added to ‘no enzyme’ control wells) before the reaction was initiated with the addition of a 25 μl mix containing methionine, ATP and pyrophosphatase to all wells. Following a 120 min reaction at room temperature the assay was stopped with the addition of 50 μl BIOMOL® Green. The BIOMOL® Green signal was allowed to develop for 30 min before the absorbance of each well was read at 650 nm using an EnVision multilabel plate reader (PerkinElmer Life Sciences). All liquid dispensing steps were carried out using a Thermo Scientific WellMate dispenser (Matrix).
ActivityBase from IDBS (version 8.0.5.4) was used for data processing and analysis. All IC50 curve fitting was undertaken using ActivityBase XE (version 7.7.1) from IDBS. A four-parameter logistic dose-response curve was utilized with prefit used for all four parameters.
For DDD806905 Kiapp determinations, data fitting to the Morrison equation (equation 3) was carried out using GraFit v6.0 (Erithacus Software). It should be noted that data for fitting to the Morrison equation was normalised to a ‘100 µM DDD806905’ control rather than a ‘no enzyme’ control as […]
Equation 3 (Morrison equation): […]
vi = K1 −−([ ] [ ]ET+IT+Ki)−([ ] [ ]ET+IT+i)[ ] [ ]TIE4T
LdMetRS Mode of Inhibition Studies
To establish the mode of inhibition of DDD806905, data sets (generated using the BIOMOL® Green assay platform previously described) were collected by varying both the inhibitor and substrate concentrations. Using GraFit v6.0 (Erithacus Software) each data set was individually fitted to the Michaelis-Menten equation or the modified high substrate inhibition Michaelis-Menten equation described above (equation 2), and the resulting Lineweaver-Burk plots were examined for diagnostic […]
Data sets were then globally fitted to the appropriate model (with equations 4 and 5 used for […]
If more than one model appeared possible, then data were fitted to both and examined for significance using the F-test function in GraFit.

For assay [2], the system named is L. donovani axenic amastigotes. Nature of the assay: Leishmania axenic amastigote viability assay. In kind it is cell-based, Leishmania donovani. Conditions: read-out: Leishmania Axenic Amastigote EC50. The protocol: (§1) carried out as described above using 5%, 10% and 20% FBS in the media. To examine the effect of the methionine concentration on the potency of DDD806905 parasites were grown in the presence of drug and in the presence (or absence) of 20-fold excess methionine (0.3 g/l). IC50 curve fitting was undertaken in GraFit version 6.0 (Erithacus Software) using a four-parameter logistic dose-response curve (equation 6), with s the slope.
(§2) Leishmania Axenic Amastigote Assay
(§3) The Leishmania axenic amastigote assay was performed using the method published in Nühs et al 15.
(§4) Leishmania Intracellular Amastigote Assay
(§5) The intramacrophage Leishmania assay was performed using a modified version of the method described in De Rycker et al 16. […]
amphotericin B was included. Controls were as follows: columns 11 and 12: DMSO, columns 23 and 24: amphotericin B (final concentration 2 µM). 350 nl of compound was pre-dispensed into 384-well sterile intermediary plates. To the intermediary plates, 35 µl of THP-1 media was added and plates were shaken for >5 min to ensure complete mixing. THP-1 cells (8,000 per well, 50 µl) were plated into black clear-bottom 384-well plates (Corning) in presence of 20 nM phorbol 12-myristate 13- […]
in a humidified incubator for 75 h. The cells were then washed with 450 µl sterile phosphate buffered saline (PBS) supplemented with 1 mM CaCl2, 0.5 mM MgCl2, 0.1% (w/v) bovine serum albumin (PBS-A) and amastigotes were added to all wells at a multiplicity of infection of 5 (40,000 amastigotes per well). After 40 min at room temperature, plates were returned to the incubator.
Amastigotes were incubated in the presence of THP-1 macrophages for 16 h. Any remaining extracellular amastigotes were subsequently removed by washing with PBS-A followed by addition of 25 µl of the compound pre-dilutions using an Ipette-pro pipetting station (FluidX). The final dilution of each compound was 200-fold. Plates were incubated for 96 h and then washed (250 µl PBS-A) and fixed (4 % (v/v) formaldehyde-PBS, 30 min, room temperature). After fixation, the wells were washed with 250 µl PBS, stained (10 µg/ml DAPI, 0.4 µg/mL HCS Cellmask Deep Red in PBS + 0.1% (v/v) Triton X-100, 30 min, room temperature) and washed with 250 µl PBS. Finally, PBS + 0.05% (v/v) thimerosal was added to the wells, the plates were sealed and imaged on a high-content microscope (GE IN Cell 2000) using a 10x objective. Image analysis was carried out with GE IN Cell Analyzer 1000 Workstation using the “Multi Target Analysis” module. For each well, i) THP-1 cell count (cytotoxicity readout) and ii) average number of amastigotes per cell (potency readout) were […]

The subject of assay [3] is L. donovani promastigotes. Nature of the assay: Leishmania promastigote viability assay. In kind it is cell-based, Leishmania donovani. Conditions: Supplementary Table 1; read-out: Leishmania Promastigote EC50. The protocol: After suitable sample preparation, the
In vivo Leishmaniasis Animal Model […]
administered twice daily over the same interval.
Parasite load is expressed in Leishman-
Knock-out and overexpressor generation
Leishmania Promastigote Assay
Serum shift experiments were […]
as §1, §2, §3, §4, §5
amphotericin B was included. Controls were as follows: columns 11 and 12: DMSO, columns 23 and 24: amphotericin B (final concentration 2 µM). 350 nl of compound was pre-dispensed into 384-well sterile intermediary plates. To the intermediary plates, 35 µl of THP-1 media was added and plates were shaken for >5 min to ensure complete mixing. THP-1 cells (8,000 per well, 50 µl) were plated into black clear-bottom 384-well plates (Corning) in presence of 20 nM phorbol 12-myristate 13-

Structures are written as SMILES. Read-outs that look alike come from different tables or passages of the source.

Chain of LdMetRS (A0A3Q8IBX2 entry or part of it): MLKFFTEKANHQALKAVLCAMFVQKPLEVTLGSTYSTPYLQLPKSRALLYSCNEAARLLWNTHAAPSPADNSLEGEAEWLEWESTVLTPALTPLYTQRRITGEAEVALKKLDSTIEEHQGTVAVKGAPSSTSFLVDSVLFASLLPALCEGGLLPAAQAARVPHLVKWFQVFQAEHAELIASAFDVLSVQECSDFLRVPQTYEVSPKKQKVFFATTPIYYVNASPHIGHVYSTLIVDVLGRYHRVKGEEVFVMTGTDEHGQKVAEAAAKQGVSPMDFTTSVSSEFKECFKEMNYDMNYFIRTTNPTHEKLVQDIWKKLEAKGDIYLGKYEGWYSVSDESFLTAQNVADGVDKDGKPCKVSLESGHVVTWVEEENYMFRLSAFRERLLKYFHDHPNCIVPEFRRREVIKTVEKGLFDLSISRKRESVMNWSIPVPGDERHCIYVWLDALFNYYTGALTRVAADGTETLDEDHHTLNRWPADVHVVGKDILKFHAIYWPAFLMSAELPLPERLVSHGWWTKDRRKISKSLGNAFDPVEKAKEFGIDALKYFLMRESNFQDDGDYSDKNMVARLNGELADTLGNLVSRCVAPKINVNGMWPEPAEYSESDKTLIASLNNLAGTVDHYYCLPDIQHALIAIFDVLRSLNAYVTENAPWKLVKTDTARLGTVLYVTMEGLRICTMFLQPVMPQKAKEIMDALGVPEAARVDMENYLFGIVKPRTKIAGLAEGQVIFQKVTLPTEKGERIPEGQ

As a reminder, the IC50 is the concentration that gives 50% inhibition. One may read the EC50 as the concentration needed to bring the measured effect to its halfway point. In the case of `CN(CCCNc1nc(=O)c2ccccc2[nH]1)Cc1cc2c(Cl)cc(Cl)cc2[nH]1` [Compound 30], the half-maximal inhibitory concentration (IC50) in assay [1] (Table 1) turned out to be 0.03 µM. Besides, in assay [2] (Leishmania donovani, Table 1), the concentration for a half-maximal effect (EC50) was determined as 18 µM.
Regarding `OCCn1c(CNCCCNc2nc3ccccc3[nH]2)cc2c(Cl)cc(Cl)cc21` [Compound 17], in assay [1] (Supplementary Table 1), the IC50 amounted to 0.38 µM. Moreover, the 50% effective concentration (EC50) in assay [2] (Supplementary Table 1) worked out at 19 µM; in assay [3], 0.87 µM.
In the case of `O=c1nc(OCCCNCc2cc3c(Cl)cc(Cl)cc3[nH]2)[nH]c2ccccc12` [Compound 31], the IC50 in assay [1] (Table 1) was found to be 22 µM. Besides, the EC50 in assay [2] (Leishmania donovani, Table 1) was > 50 µM.
For the compound `Clc1ccc(Cl)c2[nH]c(CNCCCNc3nc4ccccc4[nH]3)cc12` [Compound 3], the IC50 in assay [1] (Supplementary Table 1) stood at 69 µM. Besides, the EC50 was > 50 µM in assay [2] (Supplementary Table 1) and 7.1 µM in assay [3].
The like results for `CCOc1c(CNCCCNc2nc3ccccc3[nH]2)cc(Br)cc1OC` [Compound 13] were, in that order, 37 µM, > 50 µM and 19 µM.
Taken in the same sequence, the figures for `Cc1cc(C)c2cc(CNCCCNc3nc4ccccc4[nH]3)[nH]c2c1` [Compound 12] were 5.6 µM, > 50 µM and 9.5 µM.
Taken in the same sequence, the figures for `COc1cc(C(F)(F)F)cc2[nH]c(CNCCCNc3nc4ccccc4[nH]3)cc12` [Compound 9] were > 100 µM, > 50 µM and 7.8 µM.
For the compound `Cc1c(CNCCCNc2nc3ccccc3[nH]2)[nH]c2cc(Cl)cc(Cl)c12` [Compound 4], the half-maximal inhibitory concentration (IC50) in assay [1] (Supplementary Table 1) was 2.8 µM. For the same compound, the concentration for a half-maximal effect (EC50) was found to be 38 µM in assay [2] (Supplementary Table 1) and 1.3 µM in assay [3].
Take `O=c1nc(NCCCNCc2cc(Cl)cc(Cl)c2)[nH]c2ccccc12` [Compound 26]: the IC50 in assay [1] (Table 1) was determined as 0.74 µM. Besides, in assay [2] (Leishmania donovani, Table 1), the 50% effective concentration (EC50) is 38 µM.
As for `COc1cc(C(F)(F)F)c2cc(CNCCCNc3nc4ccccc4[nH]3)[nH]c2c1` [Compound 10], in assay [1] (Supplementary Table 1), the concentration for half-maximal inhibition (IC50) is 4.8 µM. Moreover, the EC50 in assay [2] (Supplementary Table 1) is > 50 µM; in assay [3], 6.5 µM.
The like results for `CCOc1c(Cl)cc(Cl)cc1CNCCCNc1nc2ccccc2[nH]1` [Compound 15] were, in that order, 5.4 µM, > 50 µM and 4.1 µM.
The like results for `CCOc1c(Br)cc(C)cc1CNCCCNc1nc2ccccc2[nH]1` [Compound 14] were, in that order, 12 µM, > 50 µM and 7.6 µM.
The like results for `OCc1c(Cl)cc(Cl)cc1CNCCCNc1nc2ccccc2[nH]1` [Compound 8] were, in that order, 47 µM, > 50 µM and 33 µM.
In the case of `O=C(CCNc1nc(=O)c2ccccc2[nH]1)NCc1cc(Cl)cc(Cl)c1` [Compound 27], the IC50 in assay [1] (Table 1) came out at 2.8 µM. For the same compound, the EC50 in assay [2] (Leishmania donovani, Table 1) turned out to be 22 µM.
On to `FC(F)(F)c1cc(C(F)(F)F)c2cc(CNCCCNc3nc4ccccc4[nH]3)[nH]c2c1` [Compound 5], for which, in assay [1] (Supplementary Table 1), the IC50 amounted to 46 µM. In addition, the results for the EC50 in assay [2] (Supplementary Table 1) and in assay [3] were 29 µM and 6.2 µM, respectively.
For the compound `O=c1nc(NCCCCCc2cc(Cl)cc(Cl)c2)[nH]c2ccccc12` [Compound 29], in assay [1] (Table 1), the half-maximal inhibitory concentration (IC50) is > 100 µM. Further, in assay [2] (Leishmania donovani, Table 1), the EC50 was > 50 µM.
Taken in the same sequence, the figures for `O=C(NCCCNc1nc(=O)c2ccccc2[nH]1)c1cc2c(Cl)cc(Cl)cc2[nH]1` [Compound 25] were 3.3 µM and > 50 µM.
For the compound `Brc1cc(Br)c2c(c1)C(NCCCNc1nc3ncccc3[nH]1)CCN2` (stereo not drawn) [Compound 11], the half-inhibitory concentration (IC50) in assay [1] (Supplementary Table 1) was 0.17 µM. The EC50 in assay [2] (Supplementary Table 1) stood at 6.2 µM; in assay [3], 0.54 µM.
Taken in the same sequence, the figures for `COc1cccc2[nH]c(NCCCNCc3cc(Br)cc(Br)c3)nc12` [Compound 7] were 79 µM, > 50 µM and 19 µM.
The like results for `CCOc1c(Br)cc(Cl)cc1CNCCCNc1nc2ccccc2[nH]1` [Compound 16] were, in that order, 5.9 µM, > 50 µM and 4.9 µM.
